Source: US20110172217A1, “RING-FUSED MORPHOLINE DERIVATIVE HAVING PI3K-INHIBITING ACTIVITY” (Shionogi & Co., Ltd., priority 2008, published 2011)

Molecular target: PI-3 kinase γ (Homo sapiens, UniProt P48736)
Experiment: PI3Kγ inhibitory activity, PI3-kinase HTRF assay (inhibition ratio)
Format: biochemical
Settings: 0.5 h, compound at 50 μmol/L
Experimental: For each compound synthesized in the above Examples, PI3Kγ inhibitory activity was measured.
The PI3Kγ inhibitory activity of a compound was evaluated using PI3-kinase HTRF™ assay (Millipore) according to the following procedure:
To each well of a testing plate, 5 μL of a compound solution containing 10% DMSO (200 μmol/L or 40 μmol/L as the concentration of the compound), 5 μL of a substrate solution (40 μmol/L phosphatidylinositol (4,5)-bisphosphate, 20 mmol/L MgCl2, 10 mmol/L DTT), and 5 μL of a enzyme solution (80 μg/mL PI-3 kinase γ, 10 mmol/L MgCl2, 5 mmol/L DTT) were added, and then allowed to stand for 10 minutes.
Then, 5 μL of a reaction solution (40 μmol/L ATP, 10 mmol/L MgCl2, 5 mmol/L DTT) was added thereto. After reacting for 30 minutes at room temperature, 5 μL of a solution containing EDTA and biotinylated phosphatidylinositol (3,4,5)-triphosphate were added to quench the reaction.
5 μL of a detection reagent containing a europium-labeled anti-GST antibody, the GST-tagged PH domain, and allophycocyanin-labeled streptavidin was added thereto. After 18 hours, HTRF (excitation wavelength: 330 nm, measured wavelengths: 620 nm and 665 nm) was measured.
HTRF ratio was defined as the value obtained by dividing the amount of fluorescence obtained at the measured wavelength 665 nm by the amount of fluorescence obtained at 620 nm. The HTRF ratio in the absence of a compound was defined as 100% activity and the HTRF ratio in the absence of PI-3 kinase γ was defined as 0% activity to calculate an inhibition ratio which was defined as the PI3Kγ inhibitory activity of a compound at 50 μmol/L or 10 μmol/L.

Chain of PI-3 kinase γ (P48736 whole entry): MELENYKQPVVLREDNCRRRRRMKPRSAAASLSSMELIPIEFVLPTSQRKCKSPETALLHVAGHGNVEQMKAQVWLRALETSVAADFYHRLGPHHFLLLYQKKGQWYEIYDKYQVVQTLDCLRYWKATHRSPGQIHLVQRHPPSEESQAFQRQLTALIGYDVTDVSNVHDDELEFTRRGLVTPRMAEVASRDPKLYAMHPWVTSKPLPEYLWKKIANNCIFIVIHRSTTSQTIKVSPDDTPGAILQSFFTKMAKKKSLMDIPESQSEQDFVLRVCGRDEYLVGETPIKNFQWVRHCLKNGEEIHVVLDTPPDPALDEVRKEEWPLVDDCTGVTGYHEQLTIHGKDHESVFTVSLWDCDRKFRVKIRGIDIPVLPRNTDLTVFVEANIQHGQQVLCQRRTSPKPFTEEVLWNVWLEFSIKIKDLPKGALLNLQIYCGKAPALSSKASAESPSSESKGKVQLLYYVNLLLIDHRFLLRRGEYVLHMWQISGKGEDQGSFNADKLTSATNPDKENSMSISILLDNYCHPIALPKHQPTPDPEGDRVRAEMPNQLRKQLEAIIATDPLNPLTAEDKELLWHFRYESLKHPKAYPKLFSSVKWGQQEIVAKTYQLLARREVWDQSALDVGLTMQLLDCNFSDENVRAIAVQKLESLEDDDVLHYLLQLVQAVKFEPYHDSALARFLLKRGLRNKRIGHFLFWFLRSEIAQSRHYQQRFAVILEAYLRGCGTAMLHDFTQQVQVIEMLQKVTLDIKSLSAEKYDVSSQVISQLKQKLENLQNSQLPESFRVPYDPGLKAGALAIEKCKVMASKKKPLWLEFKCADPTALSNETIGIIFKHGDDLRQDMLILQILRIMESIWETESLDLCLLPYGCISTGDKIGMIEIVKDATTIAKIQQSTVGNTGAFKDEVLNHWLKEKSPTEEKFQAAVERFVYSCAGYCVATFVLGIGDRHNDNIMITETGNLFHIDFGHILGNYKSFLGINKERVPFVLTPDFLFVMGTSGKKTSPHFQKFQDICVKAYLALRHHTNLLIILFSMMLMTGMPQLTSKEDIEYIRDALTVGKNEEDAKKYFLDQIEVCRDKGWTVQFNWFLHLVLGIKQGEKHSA

| SMILES | inhibition at 50 µM [%] |
| --- | --- |
| O=C(Nc1ccccc1)N1CCOc2ccc(Cc3ccccc3)nc21 [Compound I-87] | 75 |
| CCOC(=O)CCCc1ccc2c(n1)N(C(=O)Nc1ccccc1)CCO2 [Compound I-89] | ≥ 95 |
| NCCOc1ccccc1NC(=O)c1ccc2c(n1)N(C(=O)Nc1ccccc1)CCO2 [Compound I-130] | ≥ 95 |
| O=C(O)c1cccc(C(=O)Nc2ccc3c(n2)N(C(=O)Nc2ccccc2)CCO3)c1 [Compound I-124] | 76 |
| CC(C)(C)OC(=O)CCNC(=O)c1cnc2c(c1)OCCN2C(=O)Nc1ccccc1 [Compound I-305] | 84 |
| NCCOc1ccc(Nc2ccc3c(n2)N(C(=O)Nc2ccccc2)CCO3)cc1 [Compound I-221] | ≥ 95 |
| O=C(Nc1ccccc1)N1CCOc2ccc(N3CCOCC3)nc21 [Compound I-207] | 81 |
| Cc1n[nH]c(C)c1-c1ccc2c(n1)N(C(=O)Nc1ccccc1)CCO2 [Compound I-189] | 83 |
| CC(C)(C)OC(=O)c1ccc(Nc2ccc3c(n2)N(C(=O)Nc2ccccc2)CCO3)cc1 [Compound I-143] | ≥ 95 |
| COC(=O)c1ccccc1Nc1ccc2c(n1)N(C(=O)Nc1ccccc1)CCO2 [Compound I-141] | 82 |
| COc1ccc(-c2ccc3c(n2)N(C(=O)Nc2ccccc2)CCO3)cc1 [Compound I-98] | 73 |
| CC(C)(C)OC(=O)COc1ccc(Nc2cnc3c(c2)OCCN3C(=O)Nc2ccccc2)cc1 [Compound I-237] | ≥ 95 |
| COc1ccc(NC(=O)N2CCOc3ccc(Nc4ccc(C(=O)O)cc4)nc32)cc1OC [Compound I-210] | ≥ 95 |
| O=C(O)c1cccc(-c2ccc3c(n2)N(C(=O)Nc2ccccc2)CCO3)c1 [Compound I-104] | ≥ 95 |
| CC(C)(C)OC(=O)c1cccc(Nc2ccc3c(n2)N(C(=O)Nc2ccccc2)CCO3)c1 [Compound I-142] | 78 |
| O=C(Nc1ccccc1)N1CCOc2cccnc21 [Compound I-2] | 89 |
| O=C(Nc1ccccc1)N1CCOc2cc(-c3cn[nH]c3)cnc21 [Compound I-251] | ≥ 95 |
| COC(=O)c1ccc(-c2ccc(Nc3cnc4c(c3)OCCN4C(=O)Nc3ccccc3)cc2)cc1 [Compound I-321] | 76 |
| O=C(Nc1ccccc1)N1CCOc2cc(N3CCNCC3)cnc21 [Compound I-246] | ≥ 95 |
| O=C(O)c1ccc(Nc2ccc3c(n2)N(C(=O)Nc2ccccc2)CCO3)nc1 [Compound I-183] | 86 |
| COC(=O)c1ccc(Nc2ccc3c(n2)N(C(=O)Nc2ccccc2)CCO3)c(OCCNC(=O)OC(C)(C)C)c1 [Compound I-216] | ≥ 95 |
| NCCOc1ccc(C(=O)O)cc1NC(=O)c1ccc2c(n1)N(C(=O)Nc1ccccc1)CCO2 [Compound I-118] | ≥ 95 |
| O=C(Nc1cccnc1)N1CCOc2cc(Nc3ccccc3)cnc21 [Compound I-271] | ≥ 95 |
| O=C(O)Cc1ccc(Nc2ccc3c(n2)N(C(=O)Nc2ccccc2)CCO3)cc1 [Compound I-225] | ≥ 95 |

| SMILES | inhibition at 50 µM [%] |
| --- | --- |
| CCOC(=O)CNC(=O)Nc1cnc2c(c1)OCCN2C(=O)Nc1ccccc1 [Compound I-238] | 83 |
| O=C(Nc1ccccc1)N1CCOc2cc(Nc3ccc(Oc4ccccc4)cc3)cnc21 [Compound I-322] | 78 |
| O=C(Nc1ccccc1)N1CCOc2ccc(-c3cncnc3)nc21 [Compound I-106] | ≥ 95 |
| O=C(O)c1ccc(-c2ccc3c(n2)N(C(=O)Nc2ccncc2)CCO3)cc1 [Compound I-209] | 90 |
| NCCOc1ccccc1Nc1ccc2c(n1)N(C(=O)Nc1ccccc1)CCO2 [Compound I-223] | ≥ 95 |
| CC1CN(C(=O)Nc2ccccc2)c2nc(-c3ccc(C(=O)O)cc3)ccc2O1 (stereo not shown) [Compound I-290] | 86 |
| Cc1cc(C(=O)O)ccc1-c1ccc2c(n1)N(C(=O)Nc1ccccc1)CCO2 [Compound I-230] | ≥ 95 |
| Cc1n[nH]cc1-c1ccc2c(n1)N(C(=O)Nc1ccccc1)CCO2 [Compound I-188] | ≥ 95 |
| CC(C)(C)OC(=O)CC(=O)Nc1cnc2c(c1)OCCN2C(=O)Nc1ccccc1 [Compound I-160] | 75 |
| COC(=O)c1cccc(-c2ccc3c(n2)N(C(=O)Nc2ccccc2)CCO3)c1 [Compound I-103] | 94 |
| Nc1ccc(-c2ccc3c(n2)N(C(=O)Nc2ccccc2)CCO3)cn1 [Compound I-185] | 76 |
| O=C(Nc1ccccc1)N1CCOc2ccc(Nc3cccnc3)nc21 [Compound I-181] | ≥ 95 |
| CC(NC(=O)c1ccc2c(n1)N(C(=O)Nc1ccccc1)CCO2)C(=O)O (stereo not shown) [Compound I-38] | 76 |
| O=C(O)c1cncc(-c2ccc3c(n2)N(C(=O)Nc2ccccc2)CCO3)c1 [Compound I-184] | ≥ 95 |
| O=C(O)c1ccc(C(=O)Nc2ccc3c(n2)N(C(=O)Nc2ccccc2)CCO3)cc1 [Compound I-125] | ≥ 95 |
| O=C(Nc1ccccc1)N1CCOc2cc(-c3cnn(CCN4CCOCC4)c3)cnc21 [Compound I-293] | ≥ 95 |
| CC(C)(C)OC(=O)CNC(=O)c1ccc(Nc2ccc3c(n2)N(C(=O)Nc2ccccc2)CCO3)cc1 [Compound I-273] | 76 |
| CCOC(=O)Cc1ccc(Nc2ccc3c(n2)N(C(=O)Nc2ccccc2)CCO3)cc1 [Compound I-212] | ≥ 95 |
| O=C(Nc1ccccc1)N1CCOc2cc(-c3ccc[nH]3)cnc21 [Compound I-274] | ≥ 95 |
| COC(=O)c1ccc(N(C)c2cnc3c(c2)OCCN3C(=O)Nc2ccccc2)cc1 [Compound I-243] | 77 |
| O=C(O)c1cccc(NC(=O)c2ccc3c(n2)N(C(=O)Nc2ccccc2)CCO3)c1 [Compound I-126] | ≥ 95 |
| NCCOc1cc(C(=O)O)ccc1Nc1ccc2c(n1)N(C(=O)Nc1ccccc1)CCO2 [Compound I-227] | ≥ 95 |
| O=C(Nc1ccccc1)N1CCOc2ccc(Nc3ccccn3)nc21 [Compound I-180] | ≥ 95 |
| CCOC(=O)CC(=O)Nc1ccc2c(n1)N(C(=O)Nc1ccccc1)CCO2 [Compound I-122] | 87 |

| SMILES | inhibition at 50 µM [%] |
| --- | --- |
| Cn1cc(-c2ccc3c(n2)N(C(=O)Nc2ccccc2)CCO3)cn1 [Compound I-190] | ≥ 95 |
| CC(C)(C)OC(=O)n1c(-c2cnc3c(c2)OCCN3C(=O)Nc2ccccc2)cc2ccccc21 [Compound I-283] | 85 |
| CC(C)(C)OC(=O)N1CCN(c2cnc3c(c2)OCCN3C(=O)Nc2ccccc2)CC1C(=O)O (stereo not shown) [Compound I-245] | ≥ 95 |
| O=C(O)c1ccc(-c2cnc3c(c2)OCCN3C(=O)Nc2ccccc2)cc1 [Compound I-111] | 87 |
| CC(=O)Nc1ccc2c(n1)N(C(=O)Nc1ccccc1)CCO2 [Compound I-174] | 79 |
| O=C(Nc1ccccc1)N1CCOc2cc(Nc3ccc4c(c3)CCO4)cnc21 [Compound I-320] | 95 |
| CC(C)(C)OC(=O)COc1cccc(Nc2cnc3c(c2)OCCN3C(=O)Nc2ccccc2)c1 [Compound I-234] | ≥ 95 |
| CN(c1ccc(C(=O)O)cc1)c1ccc2c(n1)N(C(=O)Nc1ccccc1)CCO2 [Compound I-284] | 82 |
| Nc1ccc2c(n1)N(C(=O)Nc1ccccc1)CCO2 [Compound I-108] | 88 |
| COC(=O)c1ccc(Nc2cnc3c(c2)OCCN3C(=O)Nc2ccccc2)cc1OC [Compound I-327] | 86 |
| O=C(O)c1ccc(-c2cnc3c(c2)OCCN3C(=O)Nc2ccccc2)s1 [Compound I-285] | 88 |
| O=C(O)Cn1cc(-c2cnc3c(c2)OCCN3C(=O)Nc2ccccc2)cn1 [Compound I-280] | 88 |
| O=C(O)c1ccccc1Nc1cnc2c(c1)OCCN2C(=O)Nc1ccccc1 [Compound I-137] | ≥ 95 |
| O=C(Nc1ccccc1)N1CCOc2cc(-c3cc[nH]n3)cnc21 [Compound I-269] | 71 |
| COc1ccc2cc(-c3cnc4c(c3)OCCN4C(=O)Nc3ccccc3)[nH]c2c1 [Compound I-302] | 87 |
| O=C(O)CCc1ccc2c(n1)N(C(=O)Nc1ccccc1)CCO2 [Compound I-94] | ≥ 95 |
| CC(C)(C)OC(=O)NCCOc1ccc(Nc2ccc3c(n2)N(C(=O)Nc2ccccc2)CCO3)cc1 [Compound I-214] | ≥ 95 |
| O=C(Nc1ccccc1)N1CCOc2ccc(-c3ccc(CO)cc3)nc21 [Compound I-97] | 89 |
| COc1cccc(NC(=O)N2CCOc3ccc(Nc4ccc(C(=O)O)cc4)nc32)c1 [Compound I-211] | ≥ 95 |
| O=C(Nc1ccccc1)N1CCOc2cc(Nc3ccc4ncsc4c3)cnc21 [Compound I-317] | ≥ 95 |
| CCCCNS(=O)(=O)c1cccc(Nc2cnc3c(c2)OCCN3C(=O)Nc2ccccc2)c1 [Compound I-311] | 81 |
| C#Cc1cccc(Nc2cnc3c(c2)OCCN3C(=O)Nc2ccccc2)c1 [Compound I-314] | 78 |
